Assay results taken from patent US4900658A, “Chromophoric peptides for detecting peptidylglycine-α-amidizing monooxygenase” (Hoechst Aktiengesellschaft, priority 1986, dated 1990).
Where a SMILES comes first, the peptide text is derived from it. [ ]: non-standard residue; d: D form. The star is where a group is joined. Dansyl = CN(C)c1cccc2c(S(=O)(=O)*)cccc12

Molecular target: peptidylglycine-α-amidizing monooxygenase (PAM) (Bos taurus, UniProt P10731)
Conditions: after 3 hours
Description: The tests with the substrate, according to the invention, of the formula I (R=Gly--OH) and with the comparison substance of the formula I (R=NH2) were carried out both with the crude fractions and also with the enriched fractions.
Procedure for enzyme assay using the substrate of the formula I (R=Gly--OH) and the reference substance of the formula II (R=NH2)
The enzyme tests are carried out in a buffer of pH 7.4. The aqueous buffer is composed of the buffer substance N-[tris-(hydroxymethyl)-methyl]-2-amino-ethanesulfonic acid (100 mM), CuSO4 (3 μM), peptide substrate of the formula I (R=Gly--OH) (50 μM) and catalase from bovine liver (100 μg/ml). 100 μl of this buffer solution are incubated with 100 μl of the solution containing PAM, and, after 3 hours at 37° C., the reaction is stopped by adding 700 μl of CH2 Cl2. […] After the mixture has been centrifuged and the organic phase removed, the latter is evaporated in a vacuum centrifuge and the residue is again taken up in a constant volume of CH2 Cl2. All operations are carried out with exclusion of light in order to prevent photo-reactions of the light-sensitive substrate. […] Quantification of the resulting amide of the formula I (R=NH2) by means of a thin layer scanner is made possible by simultaneously applying the peptide amide of the formula II in various concentrations as a reference.

Sequence of peptidylglycine-α-amidizing monooxygenase (PAM) (P10731 31-972): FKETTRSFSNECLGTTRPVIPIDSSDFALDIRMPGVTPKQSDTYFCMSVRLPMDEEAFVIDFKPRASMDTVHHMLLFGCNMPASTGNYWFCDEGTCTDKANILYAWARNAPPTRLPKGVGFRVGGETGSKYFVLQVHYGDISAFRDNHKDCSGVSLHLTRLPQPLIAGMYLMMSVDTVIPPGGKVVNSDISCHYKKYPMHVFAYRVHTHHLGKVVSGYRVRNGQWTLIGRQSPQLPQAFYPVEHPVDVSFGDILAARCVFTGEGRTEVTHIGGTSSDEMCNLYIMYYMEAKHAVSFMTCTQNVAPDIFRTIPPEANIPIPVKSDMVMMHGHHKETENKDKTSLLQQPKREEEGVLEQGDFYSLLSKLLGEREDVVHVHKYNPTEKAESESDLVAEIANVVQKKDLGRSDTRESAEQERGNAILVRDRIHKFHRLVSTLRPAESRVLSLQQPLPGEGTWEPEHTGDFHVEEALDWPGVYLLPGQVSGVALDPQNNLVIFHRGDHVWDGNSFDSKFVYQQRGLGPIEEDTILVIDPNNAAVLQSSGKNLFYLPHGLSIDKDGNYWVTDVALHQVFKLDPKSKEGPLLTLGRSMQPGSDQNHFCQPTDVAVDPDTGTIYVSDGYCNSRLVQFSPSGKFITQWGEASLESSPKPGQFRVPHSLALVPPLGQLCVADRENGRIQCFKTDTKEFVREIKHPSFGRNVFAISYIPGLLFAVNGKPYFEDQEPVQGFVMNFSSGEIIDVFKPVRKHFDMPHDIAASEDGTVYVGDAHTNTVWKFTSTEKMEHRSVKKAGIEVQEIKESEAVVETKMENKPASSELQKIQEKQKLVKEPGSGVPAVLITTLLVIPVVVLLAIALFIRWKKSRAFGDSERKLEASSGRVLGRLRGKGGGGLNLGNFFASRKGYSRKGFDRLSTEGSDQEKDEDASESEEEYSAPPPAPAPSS

SMILES: C[C@@H](NS(=O)(=O)c1cccc2c(N(C)C)cccc12)C(=O)N1CCC[C@H]1C(=O)NCC(=O)O [DIS-D-Ala--Pro--Gly--OH, DIS--D--Ala--Pro--Gly--OH] (Dansyl-[dA]-Pro-Gly-OH)
- Share of the substrate reacted: approx. 5%
